This passage reports TGI and GI50 results from PubChem BioAssay (NCI).

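A five-concentration, 48-hour dose response in 96-well plates underlies each endpoint, interpolated linearly between surrounding concentrations. Abbreviation: GI50, concentration required for 50% inhibition of growth. TGI: concentration producing complete growth inhibition.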

Some test systems named below: UO-31 renal; CAKI-1 renal; SR leukemia; EKVX NSCLC; SK-MEL-5 melanoma; PC-3 prostate; U251 CNS; LOX IMVI melanoma; ACHN renal; KM12 colon.
Holding throughout (test): NCI-60 cell line screen, 48 h

Consider `C(=Nc1ccc2c(c1)Cc1ccccc1-2)c1ccccn1`, for which the TGI with UO-31 renal, in the test with CAKI-1 renal, in the test with SR leukemia, with EKVX NSCLC, in the test with SK-MEL-5 melanoma and in the test with PC-3 prostate was above 100 µM in each case. Also, the TGI in the test on U251 CNS, in the test with LOX IMVI melanoma, in the test on ACHN renal and with KM12 colon was above 100 µM throughout.
On to `Cc1ccc(CSC(N)=Nc2ccccc2)cc1C`, for which the TGI with CAKI-1 renal was 60.9 µM; in the test with SR leukemia, 55.8 µM; in the test on EKVX NSCLC, 75.8 µM; in the test with SK-MEL-5 melanoma, 34.9 µM; in the test with PC-3 prostate, 60.5 µM; in the test on U251 CNS, 31.6 µM. Further, the TGI with LOX IMVI melanoma was 36.2 µM; in the test on ACHN renal, above 100 µM; in the test on KM12 colon, 39.7 µM.
On to `COc1ccc(C2COc3c(ccc(O)c3C)C2)cc1OC` (configuration not stated), for which the TGI in the test on UO-31 renal is 178 µM; in the test with CAKI-1 renal, above 200 µM; with EKVX NSCLC, above 200 µM; with SK-MEL-5 melanoma, 24.6 µM; in the test with U251 CNS, above 200 µM; in the test with LOX IMVI melanoma, 128 µM. For the same molecule, the TGI with KM12 colon was above 200 µM.
Consider `Cc1nc2ccc(S(=O)(=O)Nc3nccs3)cc2c(=O)n1NS(=O)(=O)c1nccs1`, for which the TGI with UO-31 renal, in the test with CAKI-1 renal, in the test on EKVX NSCLC, with SK-MEL-5 melanoma, in the test with PC-3 prostate and in the test on U251 CNS was above 100 µM in each case. Besides, the TGI with ACHN renal and with KM12 colon was above 100 µM in each case.
Consider `N[C@H](Cc1ccc2oc3cc(=O)c4ccccc4c-3nc2c1)C(=O)O`, for which the TGI in the test on UO-31 renal is above 100 µM; with CAKI-1 renal, above 100 µM; with SR leukemia, above 100 µM; with EKVX NSCLC, above 100 µM; in the test with SK-MEL-5 melanoma, 41.1 µM; in the test with U251 CNS, above 100 µM. For the same molecule, the TGI in the test with LOX IMVI melanoma, in the test with ACHN renal and with KM12 colon was above 100 µM each time.
Consider `CCCCC1C=Cn2c(=O)oc3c(OC(C)C)c(C)c(O)c1c32` (configuration not stated), for which the TGI was 7.02 µM in the test with UO-31 renal; 2.34 µM with CAKI-1 renal; 6.17 µM in the test on SR leukemia; 6.83 µM with EKVX NSCLC; 6.59 µM in the test with SK-MEL-5 melanoma; 14.2 µM in the test on PC-3 prostate. The TGI in the test on U251 CNS stood at 11 µM; with LOX IMVI melanoma, 5.52 µM; in the test on ACHN renal it was 3.35 µM; with KM12 colon, 8.26 µM.
With `COC(=O)C1=C(OC)[C@H]2C#C/C=C\C#C[C@@H]3Nc4c(cc(O)c5c4C(=O)c4ccccc4C5=O)[C@]24O[C@@]34[C@H]1C`, the TGI with UO-31 renal is below 0.01 µM; with CAKI-1 renal it was below 0.01 µM; in the test with SR leukemia, below 0.01 µM; with EKVX NSCLC, 0.0335 µM; with SK-MEL-5 melanoma, below 0.0149 µM; in the test on PC-3 prostate, 0.138 µM. Also, the TGI was below 0.0133 µM in the test with U251 CNS, below 0.01 µM in the test with LOX IMVI melanoma, below 0.01 µM in the test with ACHN renal and 0.0475 µM with KM12 colon.
With `COc1ccc2c(c1)c(-c1nc(-c3c[nH]c4ncccc34)cs1)cn2CCCCN1CCCCC1`, the values for the GI50 with UO-31 renal, in the test on PC-3 prostate and in the test with ACHN renal were 1.38 µM, 1.52 µM and 1.66 µM, respectively. Besides, the TGI in the test with UO-31 renal is 2.77 µM; in the test with PC-3 prostate, 2.93 µM; in the test on ACHN renal, 3.04 µM.
As to `C[n+]1c2ccccc2c(NC(CCCN=C(N)N)C(=O)O)c2ccccc21` (configuration not stated), the TGI in the test on UO-31 renal, in the test with CAKI-1 renal, with SR leukemia, in the test with EKVX NSCLC, in the test on SK-MEL-5 melanoma and in the test on U251 CNS was above 100 µM throughout. For the same molecule, the TGI in the test on ACHN renal and in the test on KM12 colon was above 100 µM each time.
As for `CN(C)CCCNc1ccc2ncn3c4ccc(O)cc4c(=O)c1c23`, the TGI turned out to be 11.4 µM with UO-31 renal; 1.59 µM in the test with CAKI-1 renal; 1.55 µM in the test with SR leukemia; 16.6 µM in the test with EKVX NSCLC; 9.57 µM in the test with SK-MEL-5 melanoma; 14.4 µM in the test with PC-3 prostate. The TGI with U251 CNS was 4.6 µM; with LOX IMVI melanoma it was 3.13 µM; in the test with ACHN renal it was 4.04 µM; in the test on KM12 colon, 16.7 µM.
With `COc1ccc(/C=N/n2cnc3c(c2=O)SC(=C(C#N)C#N)N3c2ccccc2)cc1`, the TGI with UO-31 renal, in the test on SR leukemia, with SK-MEL-5 melanoma, in the test with U251 CNS, in the test with ACHN renal and in the test on KM12 colon was above 100 µM throughout.
As to `C/C(=N\NC(=S)N1CCCC1)c1nc2ncccc2[nH]1`, the TGI in the test with UO-31 renal is 0.492 µM; in the test with CAKI-1 renal, 37.1 µM; in the test with SR leukemia, above 100 µM; in the test on SK-MEL-5 melanoma, 2.93 µM; with PC-3 prostate, above 100 µM; in the test on U251 CNS, 13.5 µM. Also, the TGI came to 13.1 µM in the test with LOX IMVI melanoma, 11.4 µM in the test on ACHN renal and 23.8 µM in the test with KM12 colon.
On to `CCOC(=O)c1sc2nc(SC)nc(Nc3ccc4c(c3)OCCO4)c2c1N`, for which the TGI with UO-31 renal was 36.7 µM; in the test with CAKI-1 renal it was 49.2 µM; in the test on SR leukemia, above 100 µM; in the test with EKVX NSCLC it was 26.6 µM; in the test on SK-MEL-5 melanoma, 26.7 µM; with PC-3 prostate it was 29.7 µM. Also, the TGI was 21.2 µM with U251 CNS, above 100 µM in the test with LOX IMVI melanoma, 19.8 µM with ACHN renal and 78.5 µM in the test on KM12 colon.
With `O=C1c2ccccc2OCC12OC21C=CC(Cl)=CC1` (configuration not stated), the TGI is 65.1 µM in the test with UO-31 renal; 17.5 µM in the test with SR leukemia; 51.8 µM in the test with EKVX NSCLC; 28.3 µM with SK-MEL-5 melanoma; above 100 µM in the test on PC-3 prostate; 44.4 µM with U251 CNS. Besides, the TGI in the test with LOX IMVI melanoma is 30.4 µM; in the test on ACHN renal it was above 100 µM; with KM12 colon it was 41.9 µM.
As for `CCCO[C@@H]1[C@@H](OC(C)=O)[C@@H](OC(C)=O)C(C)(C)/C=C/[C@H](C)C(=O)[C@@]2(OC(C)=O)C[C@@](C)(OC(C)=O)[C@H](OC(C)=O)[C@@H]2[C@H]2OC(=O)CC[C@@]12OC(=O)c1ccccc1`, the TGI in the test on UO-31 renal, with CAKI-1 renal, in the test with EKVX NSCLC, in the test on SK-MEL-5 melanoma, with PC-3 prostate and with U251 CNS was above 25 µM throughout. The TGI in the test with LOX IMVI melanoma, in the test on ACHN renal and in the test with KM12 colon was above 25 µM each time.
Turning to `CCCC(=O)[O-].CCCC(=O)[O-].NCCN.NCCN.[Co+3].[O-][Cl+3]([O-])([O-])[O-]`, the TGI with UO-31 renal, with EKVX NSCLC, in the test on SK-MEL-5 melanoma, in the test with U251 CNS, with LOX IMVI melanoma and with ACHN renal was above 100 µM in each case. The TGI in the test with KM12 colon was above 100 µM.
As to `CN(C)CCNC(=O)c1cccc2[nH]c(-c3ccccn3)nc12`, the TGI is above 72.4 µM in the test with UO-31 renal; 78.1 µM with CAKI-1 renal; above 100 µM with EKVX NSCLC; 48.7 µM with SK-MEL-5 melanoma; above 100 µM in the test on U251 CNS; above 90.1 µM in the test on LOX IMVI melanoma. Also, the TGI in the test on KM12 colon was above 100 µM.
As to `CCCn1cnc2c(SCc3ccc(Cl)cc3)nc(N)nc21`, the TGI in the test on UO-31 renal is above 100 µM; in the test on CAKI-1 renal, 82 µM; in the test on SR leukemia, 34.8 µM; with EKVX NSCLC, 43.5 µM; with SK-MEL-5 melanoma it was 33.4 µM; in the test on PC-3 prostate, 57.8 µM. Also, the TGI in the test with U251 CNS was determined as 74.5 µM; in the test with LOX IMVI melanoma, 50.8 µM; with ACHN renal, 33.8 µM; with KM12 colon it was 58.9 µM.
`C=CCCC1(C)CCCNC1=S` (configuration not stated): the TGI with UO-31 renal, in the test with SR leukemia, with EKVX NSCLC, in the test on SK-MEL-5 melanoma, in the test on U251 CNS and with LOX IMVI melanoma was above 100 µM throughout. The TGI in the test with ACHN renal and in the test on KM12 colon was above 100 µM each time.
Take `O=C(N[C@@H](Cc1coc2ccccc12)B(O)O)[C@@H]1C[C@H]2CC[C@@H]1O2`: the GI50 is 2 µM with UO-31 renal; 4.47 µM in the test with CAKI-1 renal; 1.26 µM with SR leukemia; 22.7 µM in the test with EKVX NSCLC; 4.25 µM in the test with SK-MEL-5 melanoma; 41.2 µM with PC-3 prostate. Also, the GI50 in the test on U251 CNS is 17.8 µM; in the test on LOX IMVI melanoma it was 5.21 µM; with ACHN renal, 1.93 µM; with KM12 colon, 11.4 µM. For the same molecule, the TGI in the test with UO-31 renal is 11.3 µM; with CAKI-1 renal, above 100 µM; in the test with SR leukemia it was above 100 µM; in the test on EKVX NSCLC, above 100 µM; in the test on SK-MEL-5 melanoma, 35.3 µM; with PC-3 prostate it was above 100 µM. For the same molecule, the TGI with U251 CNS is above 100 µM; with LOX IMVI melanoma, 34.5 µM; in the test with ACHN renal, above 100 µM; in the test with KM12 colon, 57.9 µM.
